According to patent US9855281B2, “Libido-enhancing therapeutic and use” (Scott Freeman Consultant, LLC, priority 2013, dated 2018):
Entries after “also recorded” stand apart in the source; their conditions may differ.

Key:
[1] = system: male rats; test: In vivo libido stimulation assessment (mounts of rat couples); set-up: species or system Rattus novergicus, Wistar; conditions: for mount kinetics profile along the night: FIGS. 12A-12F, time after coupling
Experimental: Female and male rats (Rattus novergicus) Wistar strain, with 200-280 g and 8-12 weeks old, were purchased from University of São Paulo Central Animal Care Unity. They were kept in controlled environment, including dark-light periods (12 hours each), temperature (22° to 25° C.), and with free access to water and food.
Female Wistar rats, weighing about 250 g, were ovariectomized. The procedure initiated inducing general anesthesia with Dopalen (Ketamin 70 mg/kg) and Anasedan (Xilazin 12 mg/kg), then abdominal wall was […] by the linea alba region, ovaries location, ligation of vessels supplying the ovaries and the procedure was completed with ovariectomy, itself, as well as the suture of the abdominal wall and skin. After surgery the animals received analgesic (tramadol 2 mg/kg), antibiotic (enrofloxacin, 10 mg/kg) and anti-inflammatory (Maxicam—2 mg/kg) for at least one week, or more if necessary.
Pseudo-estrus inducing. The females received estradiol (0.2 mg/day) subcutaneously for two weeks after ovariotomoy for pseudo-estrus state inducing. This condition was evaluated by vaginal smears each two days after estradiol treatment beginning. Sterile cotton-tipped swabs wetted in distilled water were gently and quickly introduced into the vaginal orifice, carefully rotated (one twist) against the vaginal wall. Rats were not anesthetized during smear collection. Afterwards, the collected sample of vaginal epithelial cells was placed on glass slides, dried at 37° C., and fixed in an ethanol-ether solution (1:1) for one minute.
The slides were then examined under light microscopy. Only females in pseudo-estrus conditions were used for libido stimulation assessment (PACCOLA et al, 2013).
Libido stimulation assessment. For libido stimulation assessments, first male rats, weighing about 250-280 g, had their penis anesthetized with 2% lidocaine by topical route 10 minutes before treatment. The three drugs were administered orally at 50 mg/kg each two days for six days (each rat received three doses). Nandrolone (IM) was used as the positive control group while olive oil and water were used as negative controls (orally administrated), as described below in TABLE 2. After one hour of treatment, couples were put together in a box, and a video camera with night vision was adequately positioned to encompass all the groups in the video, recording overnight the matches.
Analysis of the videos was performed according to the following parameters: time to first mating, duration of mounts, and quantity of mounts.
The libido studies focused the investigation in how drugs would stimulate male rats to increase matching. Considering that sexual activity in animals is related with reproduction and not only with pleasure, assessment of increase desire is particular subjective. To ensure that the observations were related with Central Nervous System modulation, 2% Lidocaine was topically applied at penis glans, to avoid any local stimulation.
The animals were treated each two days with 50 mg/Kg of test drugs (given orally), water and olive oil as negative control (given orally) and nandrolone (IM).

[2] = system: human; test: Accidental physical contact of a human with the compositions (Example 1); format: in vivo; conditions: accidental physical contact with Formulas (I), (II) and (III) together while synthesizing
From the text: A human came in physical contact with the compositions of the libido-enhancing therapeutics of Formula (I), Formula (II), and Formula (III) by accident while synthesizing the compositions.

[3] = rats, 50 mg/Kg orally, nandrolone IM

| SMILES | total number of mounts after each treatment ([1]; FIG. 10, 50 mg/Kg orally each two days, three doses, nandrolone IM, compared with controls and other drugs) | number of mounts per hour, difference to nandrolone ([1]; FIG. 11, 50 mg/Kg orally, nandrolone IM) | mount kinetics profile along the night ([1]; 50 mg/Kg orally, nandrolone IM, listed as CAS 5138-34-1, 50 mg/kg) | mount kinetics profile along the night ([1]; 50 mg/Kg orally, nandrolone IM, listed as CAS 5238-34-1, 50 mg/kg) | stress or fatigue after each intercourse ([1]; rats, 50 mg/Kg orally) | libido stimulation [1, 3] | arousal and libido [2] | mount kinetics profile along the night ([1]; 50 mg/Kg orally, nandrolone IM) |
| --- | --- | --- | --- | --- | --- | --- | --- | --- |
| CC(=O)O[C@H]1CCC2C3CC[C@H]4CC(=O)CC[C@H]4C3CC[C@@]21C (stereo partly drawn) [Formula (I), (5S,10R,13S,17S)-13-methyl-3-oxohexadecahydro-1H-cyclopenta[a]phenanthren-17yl acetate] | significantly increased | more than twice | low activity at the first three hours after coupling; also recorded: intense and sustainable activity was achieved after the third hour until the seventieth hour of observation | took a long time to have some effect | no kind of stress of fatigue was observed | effective and sustainable late libido stimulation for greater than seven hours | weekend-long period of arousal and increased libido | – |
| CC(=O)O[C@H]1CCC2C3CC[C@H]4C[C@@H](O)CC[C@H]4C3CC[C@@]21C (stereo partly drawn) [Formula (II), (3S,5S,10R,13S,17S)-3-hydroxy-13-methylhexadecahydro-1H-cyclopenta[a]phenanthren-17yl acetate] | – | – | – | – | – | – | weekend-long period of arousal and increased libido | total decrease of activity after 2 hours coupling |
| C[C@]12CCC3C(CC[C@H]4CC(=O)CC[C@H]34)C1CC[C@@H]2O (stereo partly drawn) [Formula (III), (5S,10S,13S,17S)-17-hydroxy-13-methyltetradecahydro-1H-cyclopenta[a]phenanthren-3(2H)-one] | – | – | – | – | – | – | weekend-long period of arousal and increased libido | few mounts in subsequently hours |
| C[C@]12CC[C@H]3[C@@H](CCC4=CC(=O)CC[C@@H]43)[C@@H]1CC[C@@H]2O [Nandrolone, reference compound] | – | – | – | – | – | enhance libido early (hours) | – | low stimulation at the first three hours with a peak of activity at the fourth hour retuning to baseline (zero activity) at the sixth hour |
